Entries after “also recorded” stand apart in the source; their conditions may differ.
Tests used:
[1] = system: wild-type flies; conditions: cited from earlier work
[2] = system: flies with reduced life span due to Cu/ZnSOD and MnSOD deficiency; conditions: Cu/ZnSOD and MnSOD deficient flies; cited from earlier work
[3] = system: NF1^P1/P2 mutants; test: Locomotive (up-climbing) recovery after heat stress, antioxidant-fed NF1 mutants; format: in vivo, Drosophila melanogaster; conditions: 20 min 37° C. heat stress
Method: Locomotive assays were performed on 3- to 4-d-old flies. Flies were placed in 90 mm×20 mm vertical tubes containing a small quantity of cornmeal food at the bottom with a line drawn horizontally 10 mm from the base. Every 5 min, the vials were tapped until the flies were at the bottom of the vials. Then, flies were given 15 s to climb (up-climbing behavior) toward the top of the vial, and the numbers of flies above the 10 mm line were recorded. The locomotive index is the percentage of flies that climbed up after 15 s. After 30 min of baseline recording at 22° C., flies were subjected to a brief 20-min heat treatment at 37° C. and were then returned to 22° C. for recovery. The locomotive index was then plotted against time over the course of the experiment to determine the recovery time (τ).
(§1) MnTBAP (Oxis) and MnTDEIP (Aeolus Pharmaceuticals) were dissolved in PBS (Mediatech) before further dilution with cornmeal food to make desired concentration. Red food dye (six drops per 500 ml food) was added to the food to ensure homogeneity.

[4] = system: NF1^P1/P2 flies; test: Longevity assay, NF1 mutant flies fed catalytic antioxidants; format: in vivo, Drosophila melanogaster; conditions: for increase in survivorship: NF1^P1/P2 flies fed the antioxidant; for effect on life span of NF1 mutant flies (in words): feeding 10 μM, NF1^P1/P2 males and females
Method: Life spans were determined at 25° C. and 50% humidity with a 12-h light/dark cycle. Male and female flies were collected under brief CO2 anesthesia 2 to 3 d after eclosion, allowing time for mating. The number of deceased flies was recorded every 2 to 3 d, when flies were transferred to fresh cornmeal agar medium. Both Statview 5.0 and Prism GraphPad software were used for survival data and mortality curves analysis. Survival data were analyzed by Kaplan-Meier analysis in Statview 5.0. The log-rank (Mantel-Cox) test results are presented. Censored data were recorded and analyzed with GraphPad software.
as §1

[5] = system: mitochondrial ROS production; conditions: cited from earlier work
[6] = system: w^1118 flies; test: Longevity assay, w^1118 flies fed cAMP analogs; format: in vivo, Drosophila melanogaster
Method: Male and female flies were collected under brief CO2 anesthesia 2 to 3 d after eclosion, allowing time for mating. The number of deceased flies was recorded every 2 to 3 d, when flies were transferred to fresh cornmeal agar medium. Both Statview 5.0 and Prism GraphPad software were used for survival data and mortality curves analysis. Survival data were analyzed by Kaplan-Meier analysis in Statview 5.0. The log-rank (Mantel-Cox) test results are presented. […] The stock solutions were subsequently diluted into food to make the specific concentrations of 1 μM and 10 μM. Red food dye (six drops per 500 ml food) was added to the supplemented food to insure homogeneity.

Compound	effect on life span (in words) [1]	effect on life span (in words) [2]	recovery of locomotive performance after heat stress (in words) [3]	increase in survivorship [4]	effect on life span of NF1 mutant flies (in words) [4]	further results
COC1=C(OC)C(=O)C(CCCCCCCCCC[P+](c2ccccc2)(c2ccccc2)c2ccccc2)=C(C)C1=O [MitoQ]	shortened their life spans	partially restored normal life span	–	–	–	–
O=C(O)c1ccc(-c2c3nc(c(-c4ccc(C(=O)O)cc4)c4ccc([n-]4)c(-c4ccc(C(=O)O)cc4)c4nc(c(-c5ccc(C(=O)O)cc5)c5ccc2[n-]5)C=C4)C=C3)cc1.[Mn+3] [MnTBAP, Mn(III)tetrakis(4-benzoic acid) porphyrin]	–	–	enhanced the recovery rate of locomotive performance; also recorded: rescued delayed heat stress recovery time	approximately 50%	restores normal life span; also recorded: extended	mitochondrial ROS production and oxidative damage (in words) [5]: reduce mitochondrial ROS production and oxidative damage
[Cl-].[Mn+3].[O-]c1ccccc1C=NCCN=Cc1ccccc1[O-] [EUK-8, manganese N,N′-bis(salicyidene) ethylenediamine chloride]	shortened their life spans	partially restored normal life span	–	–	–	–
tetrakis(1,3-diethyl imidazolium-2-yl) meso-substituted manganoporphyrin [MnTDEIP]	–	–	enhanced the recovery rate of locomotive performance; also recorded: rescued delayed heat stress recovery time	approximately 50%	extended	–
CCCC(=O)Nc1ncnc2c1ncn2[C@@H]1O[C@@H]2COP(=O)(O)O[C@H]2[C@H]1OC(=O)CCC [db-cAMP, dibutyryl-cAMP]	–	–	–	–	–	increase in median life span ([6]; adult males fed 1 μM or 10 μM): 30%; increase in life span ([6]; females fed 1 μM): 60%; increase in life span ([6]; females fed 10 μM): > 100%; effect on life span of w^1118 flies (in words) ([6]; male and female w^1118 flies, 1 μM and 10 μM in food): extends life spans
